According to patent publication US7598241B2, “Carboxamide derivatives and their use as factor Xa inhibitors” (Merck Patent GmbH, priority 2003, dated 2009):

Key:
factor Xa = factor Xa (Homo sapiens, UniProt P00742); assay: Factor Xa inhibition (FXa-IC50); type: biochemical
From the text: The inhibition of factor Xa by the compounds according to the invention and the measurement of the anticoagulant and antithrombotic activity can be determined by conventional in-vitro or in-vivo methods. A suitable method is described, for example, by J. Hauptmann et al. in Thrombosis and Haemostasis 1990, 63, 220-223.
The inhibition of factor Xa can be measured, for example, by the method of T. Hara et al. in Thromb. Haemostas. 1994, 71, 314-319.

TF/FVIIa = TF/FVIIa (Homo sapiens, UniProt P08709); assay: TF/FVIIa inhibition (TF/FVIIa-IC50); type: biochemical
TF/FVIIa, sequence (P08709 213-466 limits assumed): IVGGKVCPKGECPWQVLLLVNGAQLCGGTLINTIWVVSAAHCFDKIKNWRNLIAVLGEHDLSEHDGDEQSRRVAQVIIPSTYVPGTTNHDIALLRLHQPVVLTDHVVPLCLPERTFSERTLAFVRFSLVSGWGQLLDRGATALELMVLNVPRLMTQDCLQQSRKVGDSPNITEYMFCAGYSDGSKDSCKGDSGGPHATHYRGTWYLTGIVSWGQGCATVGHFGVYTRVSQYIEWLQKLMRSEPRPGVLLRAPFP
TF/FVIIa, sequence (P08709 61-212 partner limits assumed): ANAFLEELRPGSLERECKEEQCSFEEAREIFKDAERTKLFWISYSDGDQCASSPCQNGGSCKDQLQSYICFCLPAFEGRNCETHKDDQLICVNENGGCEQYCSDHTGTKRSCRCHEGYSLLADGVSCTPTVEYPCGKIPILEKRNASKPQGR
TF/FVIIa, sequence (P13726 33-295 partner): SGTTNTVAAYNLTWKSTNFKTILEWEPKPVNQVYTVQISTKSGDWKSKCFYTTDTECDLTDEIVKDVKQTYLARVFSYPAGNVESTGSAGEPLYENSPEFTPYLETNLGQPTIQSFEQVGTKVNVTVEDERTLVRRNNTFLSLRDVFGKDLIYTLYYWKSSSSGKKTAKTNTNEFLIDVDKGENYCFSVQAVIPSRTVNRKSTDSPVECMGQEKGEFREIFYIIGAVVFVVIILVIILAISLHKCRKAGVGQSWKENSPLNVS
From the text: Coagulation factor VIIa initiates the extrinsic part of the coagulation cascade after binding to tissue factor and contributes to the activation of factor X to give factor Xa. Inhibition of factor VIIa thus prevents the formation of factor Xa and thus subsequent thrombin formation. • The inhibition of factor VIIa by the compounds according to the invention and the measurement of the anticoagulant and antithrombotic activity can be determined by conventional in-vitro or in-vivo methods. A conventional method for the measurement of the inhibition of factor VIIa is described, for example, by H. F. Ronning et al. in Thrombosis Research 1996, 84, 73-81.

factor Xa, sequence (P00742 235-488 limits assumed): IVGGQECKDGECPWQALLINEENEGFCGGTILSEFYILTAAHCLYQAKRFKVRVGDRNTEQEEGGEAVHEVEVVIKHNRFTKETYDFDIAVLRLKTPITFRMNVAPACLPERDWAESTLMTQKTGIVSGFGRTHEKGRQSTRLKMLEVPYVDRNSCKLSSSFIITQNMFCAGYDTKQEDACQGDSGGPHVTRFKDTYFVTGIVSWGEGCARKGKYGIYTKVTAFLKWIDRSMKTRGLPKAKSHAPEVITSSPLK
factor Xa, sequence (P00742 41-179 partner limits assumed): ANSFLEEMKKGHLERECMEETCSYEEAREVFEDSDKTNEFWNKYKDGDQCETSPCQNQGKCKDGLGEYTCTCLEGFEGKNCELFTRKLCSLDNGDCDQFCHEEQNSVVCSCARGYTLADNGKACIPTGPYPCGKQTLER

| Structure (SMILES) | IC50 (factor Xa) | IC50 (TF/FVIIa) |
| --- | --- | --- |
| CS(=O)(=O)CCC(NC(=O)Nc1ccc(Cl)cc1)C(=O)Nc1ccc(-n2ccccc2=O)cc1 (stereo not shown) [Compound 1A, 2-[3-(4-chlorophenyl)ureido]-N-[4-(2-oxo-2H-pyridin-1-yl)phenyl]-4-methanesulfonylbutyramide] | 28 nM | 28 nM |
| CS(=O)(=O)CCC(NC(=O)Nc1ccc(Cl)cc1)C(=O)Nc1ccc(-n2ccncc2=O)cc1 (stereo not shown) [Compound 1B, 2-[3-(4-chlorophenyl)ureido]-N-[4-(2-oxo-2H-pyrazin-1-yl)phenyl]-4-methanesulfonylbutyramide] | 42 nM | 43 nM |
| COP(=O)(C[C@@H](NC(=O)Nc1ccc(Cl)cc1)C(=O)Nc1ccc(N2CCOCC2=O)cc1)OC [Compound 1D, (S)-2-[3-(4-chlorophenyl)ureido]-N-[4-(3-oxomorpholin-4-yl)phenyl]-3-(dimethoxyphosphoryl)propionamide] | 85 nM | – |
| CS(=O)(=O)C[C@H](NC(=O)Nc1ccc(Cl)cc1)C(=O)Nc1ccc(-n2ccccc2=O)cc1 [Compound 2A, (R)-2-[3-(4-chlorophenyl)ureido]-N-[4-(2-oxo-2H-pyridin-1-yl)phenyl]-3-methanesulfonylpropionamide] | 6.4 nM | 12 nM |
